This is an account of results in ChEMBL document CHEMBL3864167, “Structure-Activity Relationship, Drug Metabolism and Pharmacokinetics Properties Optimization, and in Vivo Studies of New Brain Penetrant Triple T-Type Calcium Channel Blockers” (J Med Chem, 2016).

Data set [1] in a line: Intrinsic clearance in human liver microsomes at 1 uM up to 15 mins in presence of NADPH by LC-MS-MS analysis. Type of data set: ADME. The following applies: read-out: CLH.
The target in data set [2] is Voltage-dependent T-type calcium channel subunit alpha-1I (Homo sapiens, UniProt Q9P0X4). As to the kind of experiment: Channel blocking activity at recombinant human CaV 3.3 channel expressed in HEK293 cells assessed as inhibition of Ca2+ flux preincubated for 3 mins followed by CaCl2 addition by fluo-4 dye-based FLIPR assay. The format is cell-based.
The target in data set [3] is Voltage-dependent T-type calcium channel subunit alpha-1H (Homo sapiens, UniProt O95180). As to the kind of experiment: Channel blocking activity at recombinant human CaV 3.2 channel expressed in HEK293 cells assessed as inhibition of Ca2+ flux preincubated for 3 mins followed by CaCl2 addition by fluo-4 dye-based FLIPR assay. Type of data set: cell-based. Background: Calcium assays in cells follow changes in intracellular calcium, usually with a dye or a luminescent sensor.

The target of data set [4] is Voltage-dependent T-type calcium channel subunit alpha-1G (Homo sapiens, UniProt O43497). As to the kind of experiment: Channel blocking activity at recombinant human CaV 3.1 channel expressed in HEK293 cells assessed as inhibition of Ca2+ flux preincubated for 3 mins followed by CaCl2 addition by fluo-4 dye-based FLIPR assay. Type of data set: cell-based.

Bounds are passed on as bounds.

Voltage-dependent T-type calcium channel subunit alpha-1G, sequence (O43497 whole entry): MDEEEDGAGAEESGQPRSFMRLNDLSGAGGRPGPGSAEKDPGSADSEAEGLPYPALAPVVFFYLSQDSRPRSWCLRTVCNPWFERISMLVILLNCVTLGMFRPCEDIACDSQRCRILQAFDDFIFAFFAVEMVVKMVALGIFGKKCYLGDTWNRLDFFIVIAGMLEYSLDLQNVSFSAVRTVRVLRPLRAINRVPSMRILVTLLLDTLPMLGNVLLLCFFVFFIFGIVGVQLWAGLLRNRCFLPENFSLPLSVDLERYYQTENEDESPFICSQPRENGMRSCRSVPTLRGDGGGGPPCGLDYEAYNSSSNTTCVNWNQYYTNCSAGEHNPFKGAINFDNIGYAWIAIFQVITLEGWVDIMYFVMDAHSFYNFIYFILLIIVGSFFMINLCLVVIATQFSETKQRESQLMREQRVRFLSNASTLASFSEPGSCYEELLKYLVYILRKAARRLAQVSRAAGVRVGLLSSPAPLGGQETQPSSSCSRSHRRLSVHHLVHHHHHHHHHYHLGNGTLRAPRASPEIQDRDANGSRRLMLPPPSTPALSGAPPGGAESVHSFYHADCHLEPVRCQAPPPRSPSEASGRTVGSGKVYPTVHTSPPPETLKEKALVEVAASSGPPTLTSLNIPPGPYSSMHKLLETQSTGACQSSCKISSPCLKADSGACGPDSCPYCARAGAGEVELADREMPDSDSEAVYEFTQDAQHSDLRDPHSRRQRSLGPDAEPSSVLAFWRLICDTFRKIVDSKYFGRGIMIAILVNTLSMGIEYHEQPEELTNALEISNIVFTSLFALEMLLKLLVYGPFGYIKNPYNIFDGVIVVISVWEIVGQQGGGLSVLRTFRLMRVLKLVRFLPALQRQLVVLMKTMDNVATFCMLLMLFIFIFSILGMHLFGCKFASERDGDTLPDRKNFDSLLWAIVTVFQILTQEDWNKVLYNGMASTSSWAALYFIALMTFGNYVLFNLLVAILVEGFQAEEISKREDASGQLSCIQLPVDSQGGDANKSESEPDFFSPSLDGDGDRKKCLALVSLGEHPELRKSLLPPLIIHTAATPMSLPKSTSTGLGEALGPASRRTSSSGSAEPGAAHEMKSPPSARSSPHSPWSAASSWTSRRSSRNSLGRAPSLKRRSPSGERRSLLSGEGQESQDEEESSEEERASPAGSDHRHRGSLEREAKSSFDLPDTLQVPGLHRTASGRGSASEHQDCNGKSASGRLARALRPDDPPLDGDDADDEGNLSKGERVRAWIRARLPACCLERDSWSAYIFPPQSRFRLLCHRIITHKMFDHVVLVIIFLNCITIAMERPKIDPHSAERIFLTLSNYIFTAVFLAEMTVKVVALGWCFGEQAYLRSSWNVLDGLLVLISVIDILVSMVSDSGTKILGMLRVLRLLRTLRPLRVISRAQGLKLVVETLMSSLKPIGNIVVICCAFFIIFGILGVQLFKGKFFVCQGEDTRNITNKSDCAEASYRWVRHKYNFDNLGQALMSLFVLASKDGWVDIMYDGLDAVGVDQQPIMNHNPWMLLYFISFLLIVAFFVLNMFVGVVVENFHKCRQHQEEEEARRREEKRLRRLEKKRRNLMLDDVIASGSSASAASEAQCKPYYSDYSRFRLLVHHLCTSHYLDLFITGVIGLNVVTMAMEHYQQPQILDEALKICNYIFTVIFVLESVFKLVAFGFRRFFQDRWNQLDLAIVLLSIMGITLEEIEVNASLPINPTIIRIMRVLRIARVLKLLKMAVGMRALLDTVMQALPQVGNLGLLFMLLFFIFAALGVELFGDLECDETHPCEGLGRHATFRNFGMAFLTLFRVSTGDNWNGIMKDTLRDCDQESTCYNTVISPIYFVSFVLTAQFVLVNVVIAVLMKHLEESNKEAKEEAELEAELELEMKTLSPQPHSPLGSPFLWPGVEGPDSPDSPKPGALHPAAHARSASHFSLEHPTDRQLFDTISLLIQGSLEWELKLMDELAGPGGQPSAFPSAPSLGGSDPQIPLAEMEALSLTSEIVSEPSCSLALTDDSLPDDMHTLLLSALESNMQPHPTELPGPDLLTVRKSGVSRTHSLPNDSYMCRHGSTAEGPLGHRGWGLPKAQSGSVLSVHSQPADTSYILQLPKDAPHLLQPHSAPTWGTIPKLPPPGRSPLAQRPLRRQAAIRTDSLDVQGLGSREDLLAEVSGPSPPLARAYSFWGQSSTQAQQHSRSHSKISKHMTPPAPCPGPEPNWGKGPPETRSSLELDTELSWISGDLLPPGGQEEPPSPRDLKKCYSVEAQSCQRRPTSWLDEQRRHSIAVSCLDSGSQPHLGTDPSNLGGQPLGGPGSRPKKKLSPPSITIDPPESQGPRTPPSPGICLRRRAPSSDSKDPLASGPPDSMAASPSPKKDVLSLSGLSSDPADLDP
Voltage-dependent T-type calcium channel subunit alpha-1H, sequence (O95180 whole entry): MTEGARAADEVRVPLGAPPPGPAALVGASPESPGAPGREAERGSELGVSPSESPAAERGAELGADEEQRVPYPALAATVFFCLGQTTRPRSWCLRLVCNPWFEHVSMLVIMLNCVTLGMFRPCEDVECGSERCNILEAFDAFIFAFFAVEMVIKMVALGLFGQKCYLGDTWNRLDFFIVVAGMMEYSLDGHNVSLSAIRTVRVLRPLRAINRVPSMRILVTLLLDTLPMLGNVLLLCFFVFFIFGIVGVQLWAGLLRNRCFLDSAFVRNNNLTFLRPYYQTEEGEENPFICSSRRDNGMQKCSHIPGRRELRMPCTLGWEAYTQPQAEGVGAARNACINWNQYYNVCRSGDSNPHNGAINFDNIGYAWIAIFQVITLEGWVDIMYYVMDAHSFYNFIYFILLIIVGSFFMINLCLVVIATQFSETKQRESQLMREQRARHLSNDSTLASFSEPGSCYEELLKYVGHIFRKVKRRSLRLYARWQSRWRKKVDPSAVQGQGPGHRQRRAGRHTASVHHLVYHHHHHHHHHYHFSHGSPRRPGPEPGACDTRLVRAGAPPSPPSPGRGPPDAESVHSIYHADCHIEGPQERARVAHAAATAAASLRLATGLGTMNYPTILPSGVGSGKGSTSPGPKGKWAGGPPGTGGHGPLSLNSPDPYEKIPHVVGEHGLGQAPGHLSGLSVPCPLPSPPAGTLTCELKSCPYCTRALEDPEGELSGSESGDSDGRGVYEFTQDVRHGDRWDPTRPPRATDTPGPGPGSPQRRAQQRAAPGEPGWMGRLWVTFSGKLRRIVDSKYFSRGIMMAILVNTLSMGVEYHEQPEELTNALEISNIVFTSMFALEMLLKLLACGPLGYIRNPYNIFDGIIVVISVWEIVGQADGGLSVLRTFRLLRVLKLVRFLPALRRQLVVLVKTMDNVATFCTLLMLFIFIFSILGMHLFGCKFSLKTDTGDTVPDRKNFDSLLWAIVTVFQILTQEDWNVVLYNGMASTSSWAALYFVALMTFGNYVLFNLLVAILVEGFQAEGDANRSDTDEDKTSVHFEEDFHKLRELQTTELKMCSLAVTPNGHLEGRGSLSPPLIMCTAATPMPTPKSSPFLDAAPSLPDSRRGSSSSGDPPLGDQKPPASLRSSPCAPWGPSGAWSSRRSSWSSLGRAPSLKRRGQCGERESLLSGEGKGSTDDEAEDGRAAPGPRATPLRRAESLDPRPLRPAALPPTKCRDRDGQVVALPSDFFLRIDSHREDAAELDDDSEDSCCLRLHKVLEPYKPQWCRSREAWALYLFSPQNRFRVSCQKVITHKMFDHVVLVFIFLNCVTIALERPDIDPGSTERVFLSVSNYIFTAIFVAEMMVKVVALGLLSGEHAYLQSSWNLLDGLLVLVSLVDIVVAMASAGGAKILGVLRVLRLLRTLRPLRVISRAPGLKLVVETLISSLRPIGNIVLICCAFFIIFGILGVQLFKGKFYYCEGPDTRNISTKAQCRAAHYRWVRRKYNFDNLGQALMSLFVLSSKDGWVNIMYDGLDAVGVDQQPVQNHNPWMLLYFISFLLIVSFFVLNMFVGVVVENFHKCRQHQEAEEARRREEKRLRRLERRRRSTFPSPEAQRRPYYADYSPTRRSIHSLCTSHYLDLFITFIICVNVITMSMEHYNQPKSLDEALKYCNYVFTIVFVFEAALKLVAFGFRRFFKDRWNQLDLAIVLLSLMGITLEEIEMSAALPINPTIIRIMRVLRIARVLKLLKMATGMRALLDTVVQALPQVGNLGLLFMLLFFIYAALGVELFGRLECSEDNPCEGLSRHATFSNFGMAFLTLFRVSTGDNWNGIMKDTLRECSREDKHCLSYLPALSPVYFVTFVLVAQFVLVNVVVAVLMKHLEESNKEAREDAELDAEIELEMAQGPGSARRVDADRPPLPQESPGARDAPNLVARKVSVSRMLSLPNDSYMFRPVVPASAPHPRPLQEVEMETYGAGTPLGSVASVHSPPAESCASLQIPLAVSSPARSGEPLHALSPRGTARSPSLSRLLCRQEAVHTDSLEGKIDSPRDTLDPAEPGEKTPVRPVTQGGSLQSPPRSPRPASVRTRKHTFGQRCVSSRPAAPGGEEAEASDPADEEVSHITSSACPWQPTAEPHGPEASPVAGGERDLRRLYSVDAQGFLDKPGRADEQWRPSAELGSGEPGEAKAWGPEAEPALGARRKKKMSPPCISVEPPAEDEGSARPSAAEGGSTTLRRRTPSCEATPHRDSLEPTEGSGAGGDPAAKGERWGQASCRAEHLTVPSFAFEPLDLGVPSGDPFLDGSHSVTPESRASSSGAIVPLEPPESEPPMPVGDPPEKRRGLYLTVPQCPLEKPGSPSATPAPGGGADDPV

One may read the IC50 as the midpoint of a concentration-inhibition curve. `C[C@H]1CN(Cc2ccccc2)c2ccccc2[C@H](C)N1C(=O)NCc1ccccc1` (racemic): the microsomal CLint at 1 µM in data set [1] was over 1250 µL/min/mg. Further, the IC50 was 95 nM in data set [2], 340 nM in data set [3] and 279 nM in data set [4].
As for `C[C@@H]1CN(Cc2ccccc2)c2cc(F)cc(F)c2[C@H](C)N1C(=O)Nc1cccnc1` (racemic), the microsomal CLint at 1 µM in data set [1] came out at 873 µL/min/mg. For the same compound, the IC50 in data set [2] came to 8 nM; in data set [3], 22 nM; in data set [4] it was 12 nM.
For `C[C@H]1c2ccccc2N(Cc2ccccc2)CCN1C(=O)NCc1ccccc1` (racemic), in that order: over 1250 µL/min/mg, 164 nM, 241 nM and 193 nM.
Take `C[C@@H]1CN(Cc2ccccc2)c2ccccc2[C@H](C)N1C(=O)CN1CCOCC1` (racemic): the microsomal CLint at 1 µM in data set [1] was over 1250 µL/min/mg. Moreover, the IC50 in data set [2] stood at 7 nM; in data set [3] it was 51 nM; in data set [4], 36 nM.
For `C[C@@H]1CN(Cc2ccccc2)c2ccccc2[C@H](C)N1C(=O)C1CCOCC1` (racemic), in that order: 1160 µL/min/mg, 8 nM, 47 nM and 24 nM.
For `C[C@@H]1CN(Cc2ccccc2)c2cc(C#N)ccc2[C@H](C)N1C(=O)Nc1cccnc1` (racemic), in that order: 418 µL/min/mg, 308 nM, 860 nM and 582 nM.
For `C[C@@H]1CN(Cc2ccccc2)c2ccccc2C(=O)N1CCc1ccccc1` (racemic), in that order: over 1250 µL/min/mg, 1590 nM, 618 nM and 676 nM.
Regarding `C[C@@H]1CN(Cc2ccccc2)c2ncc(Cl)cc2[C@H](C)N1C(=O)NCc1ccccc1` (racemic), the microsomal CLint at 1 µM in data set [1] is 409 µL/min/mg. In addition, the results for the IC50 in data set [2], in data set [3] and in data set [4] were 46 nM, 68 nM and 78 nM, respectively.
For `C[C@@H]1CN(Cc2cnc(C(F)(F)F)s2)c2cccc(F)c2[C@H](C)N1C(=O)CCc1cccnc1` (racemic), in that order: 193 µL/min/mg, 20 nM, 93 nM and 115 nM.
For `C[C@@H]1CN(Cc2ccccc2)c2cccc(F)c2[C@H](C)N1C(=O)Nc1cccnc1` (racemic), in that order: 628 µL/min/mg, 10 nM, 52 nM and 20 nM.
On to `CCN1C[C@@H](C)N(C(=O)NCc2ccccc2)[C@@H](C)c2ccccc21` (racemic), for which the microsomal CLint at 1 µM in data set [1] was over 1250 µL/min/mg. The figures for the IC50 in data set [2], in data set [3] and in data set [4] were 139 nM, 922 nM and 754 nM, respectively.
`C[C@@H]1CN(Cc2cnc(C(F)(F)F)s2)c2ccccc2[C@H](C)N1C(=O)NCc1ccccc1` (racemic): in data set [1], the microsomal CLint at 1 µM is over 1250 µL/min/mg. In addition, the IC50 in data set [2] worked out at 6 nM; in data set [3] it was 15 nM; in data set [4], 13 nM.
As to `C[C@@H]1CN(Cc2ccccc2)c2cc(OCC(F)(F)F)ccc2[C@H](C)N1C(=O)Nc1cccnc1` (racemic), the microsomal CLint at 1 µM in data set [1] was over 1250 µL/min/mg. Besides, the IC50 amounted to 3560 nM in data set [2], 790 nM in data set [3] and 187 nM in data set [4].
The corresponding values for `C[C@@H]1CN(Cc2ccccc2)c2cnc(Cl)cc2[C@H](C)N1C(=O)NCc1ccccc1` (racemic) are over 1250 µL/min/mg, 55 nM, 224 nM and 220 nM.
In the case of `C[C@@H]1CN(Cc2ccc(C(F)(F)F)o2)c2ccccc2[C@H](C)N1C(=O)NCc1ccccc1` (racemic), the microsomal CLint at 1 µM in data set [1] was over 1250 µL/min/mg. Moreover, the IC50 in data set [2] is 6 nM; in data set [3] it was 13 nM; in data set [4], 7 nM.
For `C[C@@H]1CN(Cc2ccccc2)c2ccccc2CN1C(=O)NCc1ccccc1` (racemic), in that order: over 1250 µL/min/mg, 26 nM, 141 nM and 102 nM.
For `C[C@@H]1CN(Cc2ccccc2)c2ccc(F)cc2[C@H](C)N1C(=O)Nc1cccnc1` (racemic), in that order: over 1250 µL/min/mg, 8 nM, 112 nM and 68 nM.
For `C[C@@H]1CN(Cc2ccccc2)c2cccc(F)c2[C@H](C)N1C(=O)CCc1cccnc1` (racemic), in that order: 562 µL/min/mg, 17 nM, 52 nM and 47 nM.
With `C[C@@H]1CN(Cc2cnc(C(F)(F)F)s2)c2ccccc2[C@H](C)N1C(=O)CCc1cccnc1` (racemic), the microsomal CLint at 1 µM in data set [1] came out at 332 µL/min/mg. Besides, the IC50 is 13 nM in data set [2], 30 nM in data set [3] and 40 nM in data set [4].
The corresponding values for `C[C@@H]1CNc2ccccc2[C@H](C)N1C(=O)NCc1ccccc1` (racemic) are 59 µL/min/mg, over 8600 nM, over 10700 nM and over 10000 nM.
Consider `C[C@@H]1CN(Cc2ccccc2)c2cccc(F)c2[C@H](C)N1C(=O)NC1COC1` (racemic), for which the microsomal CLint at 1 µM in data set [1] stood at 375 µL/min/mg. Besides, the values for the IC50 in data set [2], in data set [3] and in data set [4] were 13 nM, 59 nM and 40 nM, respectively.
For `C[C@@H]1CN(Cc2ccccc2)c2cc(F)ccc2[C@H](C)N1C(=O)Nc1cccnc1` (racemic), in that order: over 1250 µL/min/mg, 4 nM, 12 nM and 6 nM.
Turning to `C[C@@H]1CN(Cc2ccccc2)c2ccccc2[C@H](C)N1C(=O)CCc1cccnc1` (racemic), the microsomal CLint at 1 µM in data set [1] is over 1250 µL/min/mg. The IC50 in data set [2] worked out at 10 nM; in data set [3], 38 nM; in data set [4], 31 nM.
On to `C[C@@H]1CN(Cc2ccccc2)c2nc(F)ccc2[C@H](C)N1C(=O)NCc1ccccc1` (racemic), for which, in data set [1], the microsomal CLint at 1 µM is over 1250 µL/min/mg. Besides, the IC50 in data set [2] was 4 nM; in data set [3], 6 nM; in data set [4], 7 nM.
`C[C@@H]1CN(Cc2cccc(F)c2)c2ccccc2[C@H](C)N1C(=O)Nc1cccnc1` (racemic): the microsomal CLint at 1 µM in data set [1] is over 1250 µL/min/mg. Besides, the IC50 was 5 nM in data set [2], 14 nM in data set [3] and 8 nM in data set [4].
The corresponding values for `Cc1ccc2c(n1)N(Cc1ccccc1)C[C@@H](C)N(C(=O)NCc1ccccc1)[C@H]2C` (racemic) are 1240 µL/min/mg, 33 nM, 28 nM and 18 nM.
For `O=C(NCc1ccccc1)N1CCN(Cc2ccccc2)c2ccccc2C1`, in that order: over 1250 µL/min/mg, 214 nM, 392 nM and 305 nM.
`CC(C)CCN1C[C@@H](C)N(C(=O)CCc2cccnc2)[C@@H](C)c2c(F)cccc21` (racemic): the microsomal CLint at 1 µM in data set [1] amounted to 357 µL/min/mg. The IC50 stood at 52 nM in data set [2], 66 nM in data set [3] and 45 nM in data set [4].
